Test results from PMC7774954, “Interactomic affinity profiling by holdup assay: Acetylation and distal residues impact the PDZome-binding specificity of PTEN phosphatase” (PLoS ONE, 2020).

Legend:
DLG4 PDZ 1 = molecular target: T1, DLG4 PDZ 1 (Homo sapiens, UniProt P78352); test: Holdup assay, DLG4-1; assay type: binding; settings: DLG4-1
T1 construct: made in house; host or cells: E. coli
Protocol: (§1) The holdup assay was performed on a Tecan freedom Evo200 robot with 384-well plates in singlicate for the three 11-mer PTEN variants and the 13-mer PTEN peptide as described in [31, 32]. Briefly, prior to interaction assay, 2.5 μL of streptavidin resin was saturated in each well with 20 μL of biotinylated PBM peptides (42 μM) and then washed twice with an excess of free biotin, while the reference resin was incubated only with biotin. Right before the holdup experiment, the PDZ library was spiked with an internal standard of lysozyme. Then, the biotin- or PBM-saturated resin was incubated, each in a distinct well of a 384-well plate, with complete cell lysates diluted so that the concentration of the tag-PDZ present in the crude extract is adjusted at 4 μM. After a sufficient time to reach complex equilibrium (15 min.), a fast and mild filtration step is performed and the tag-PDZ concentrations were measured by capillary electrophoresis instrument (LabChip GXII, PerkinElmer, Massachusets, USA). Standard markers were used to convert migration time into molecular weight on the LabChip software and inappropriate molecular weight markers were corrected or excluded.
(§2) For filtered data, the BI was extracted with the following equation (Eq 1) that estimates the depleted fraction after superimposition of the sample and reference electropherograms: BI=Iref−Ilig/Iref (1) where Iref and Ilig are the intensities of the tag-PDZ peaks measured, for each PDZ domain/PBM peptide interaction pair, in the biotin reference and the PBM electropherograms, respectively.
(§3) BIs were transformed into dissociation constants (KD) using the following formula: KD=([PDZtot]−BI·[PDZtot])·([PBMtot]−BI·[PDZtot])/BI·[PDZtot] (2) where [PDZtot] and [PBMtot] correspond to the total concentrations of the PDZ domain (usually around 4 μM) and the PBM peptide used during the assay. Since the PBMtot concentration in the resin during the holdup assay parameter may differ from one peptide to another and remains unknown, it is impossible to directly convert BI values into KD constants. We systematically determined the KD constants for a subset of PDZ/PBM pairs by competitive FP. […] For each PBM, the average peptide concentration was calculated after outlier rejection based on the absolute distances from the median as compared to three times the standard deviation (3σ rule), with never more than 2 values rejected.

MAST1 PDZ 1 = molecular target: T2, MAST1 PDZ 1 (Homo sapiens, UniProt Q9Y2H9); test: Holdup assay, MAST1-1; assay type: binding; settings: for BI: MAST1-1
T2 construct: made in house; host or cells: E. coli
T2 sequence (Q9Y2H9 967-1055 limits assumed): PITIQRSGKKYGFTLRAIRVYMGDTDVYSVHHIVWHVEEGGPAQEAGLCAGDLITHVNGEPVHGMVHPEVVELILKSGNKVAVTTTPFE
Protocol: as §1, §2, §3

NHERF1 PDZ 1 = molecular target: T3, NHERF1 PDZ 1 (Homo sapiens, UniProt O14745); test: Holdup assay, NHERF1-1; assay type: binding; settings: for BI: PDZ domain NHERF1-1
T3 construct: NHERF1-1 as the first PDZ domain of the NHERF1 protein; made in house; host or cells: E. coli
T3 sequence (O14745 14-94 limits assumed): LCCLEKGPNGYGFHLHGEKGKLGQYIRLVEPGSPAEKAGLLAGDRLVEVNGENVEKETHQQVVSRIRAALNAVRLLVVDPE
Protocol: as §1, §2, §3

NHERF2 PDZ 1 = molecular target: T4, NHERF2 PDZ 1 (Homo sapiens, UniProt Q15599); test: Holdup assay, NHERF2-1; assay type: binding; settings: PDZ domain NHERF2-1
T4 construct: made in house; host or cells: E. coli
T4 sequence (Q15599 11-90 limits assumed): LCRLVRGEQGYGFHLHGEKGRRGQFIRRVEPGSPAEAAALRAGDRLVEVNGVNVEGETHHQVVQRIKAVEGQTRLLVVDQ
Protocol: as §1, §2, §3

NHERF2 PDZ 2 = molecular target: T5, NHERF2 PDZ 2 (Homo sapiens, UniProt Q15599); test: Holdup assay, NHERF2-2; assay type: binding; settings: for BI: PDZ domain NHERF2-2 (gene MPDZ, 9)
T5 construct: made in house; host or cells: E. coli
T5 sequence (Q15599 150-230 limits assumed): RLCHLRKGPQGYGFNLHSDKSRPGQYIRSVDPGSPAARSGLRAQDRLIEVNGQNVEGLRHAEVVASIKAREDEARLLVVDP
Protocol: as §1, §2, §3

APBA2-2 = test: Holdup assay, APBA2-2; assay type: binding, human
DLG1-1 = DLG1-1 (Homo sapiens, UniProt Q12959); test: Holdup assay, DLG1-1; assay type: binding; settings: DLG1-1
DLG2-2 = DLG2-2 (Homo sapiens, UniProt Q15700); test: Holdup assay, DLG2-2; assay type: binding
DLG2-2, sequence (Q15700 193-280): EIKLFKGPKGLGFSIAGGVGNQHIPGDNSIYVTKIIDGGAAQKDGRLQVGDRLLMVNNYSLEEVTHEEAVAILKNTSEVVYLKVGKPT

DLG5-1 = test: Holdup assay, DLG5-1; assay type: binding, human
FRMPD2-3 = test: Holdup assay, FRMPD2-3; assay type: binding, human
FRMPD4-1 = test: Holdup assay, FRMPD4-1; assay type: binding, human
GOPC-1 = GOPC-1 (Homo sapiens, UniProt Q9HD26); test: Holdup assay, GOPC-1; assay type: binding
GRIP1-7 = test: Holdup assay, GRIP1-7; assay type: binding, human
GRIP2-7 = test: Holdup assay, GRIP2-7; assay type: binding, human
HTRA3-1 = test: Holdup assay, HTRA3-1; assay type: binding, human
INADL-4 = test: Holdup assay, INADL-4; assay type: binding, human
LNX1-2 = molecular target: T6, LNX1-2 (Homo sapiens, UniProt Q8TBB1); test: Holdup assay, LNX1-2; assay type: binding
T6 sequence (Q8TBB1 385-467): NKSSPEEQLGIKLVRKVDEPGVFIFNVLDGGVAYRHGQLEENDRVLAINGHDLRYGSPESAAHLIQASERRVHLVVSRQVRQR

LNX2-4 = test: Holdup assay, LNX2-4; assay type: binding, human
MAGI2-6 = MAGI2-6 (Homo sapiens, UniProt Q86UL8); test: Holdup assay, MAGI2-6; assay type: binding
MAGI2-6, sequence (Q86UL8 1147-1229): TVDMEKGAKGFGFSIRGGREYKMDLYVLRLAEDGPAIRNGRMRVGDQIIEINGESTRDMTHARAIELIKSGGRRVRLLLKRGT

MAGI3-4 = test: Holdup assay, MAGI3-4; assay type: binding, human
SNTB2 PDZ 1 = molecular target: T7, SNTB2 PDZ 1 (Homo sapiens, UniProt Q13425); test: Holdup assay, SNTB2-1; assay type: binding; settings: PDZ domain SNTB2-1
T7 construct: made in house; host or cells: E. coli
T7 sequence (Q13425 115-198 limits assumed): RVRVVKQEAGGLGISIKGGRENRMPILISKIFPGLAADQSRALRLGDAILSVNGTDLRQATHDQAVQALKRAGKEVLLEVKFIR
Protocol: as §1, §2, §3

DLG4-2 = DLG4-2 (Homo sapiens, UniProt P78352); test: Holdup assay, DLG4-2; assay type: binding
DLG4-2, sequence (P78352 160-246): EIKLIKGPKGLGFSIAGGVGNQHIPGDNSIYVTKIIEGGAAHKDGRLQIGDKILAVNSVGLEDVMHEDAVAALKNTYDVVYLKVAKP

INADL-10 = test: Holdup assay, INADL-10; assay type: binding, human

T1 sequence (P78352 65-151): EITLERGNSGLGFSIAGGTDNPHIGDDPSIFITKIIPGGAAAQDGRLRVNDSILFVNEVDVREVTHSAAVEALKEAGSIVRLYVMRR

Structure (SMILES) | BI (DLG4 PDZ 1) | Kd (MAST1 PDZ 1) [µM] | BI (MAST1 PDZ 1) | Kd (NHERF1 PDZ 1) [µM] | BI (NHERF1 PDZ 1) | BI (NHERF2 PDZ 1) | BI (NHERF2 PDZ 2) | BI (APBA2-2) | LogKD (APBA2-2) | BI (DLG1-1) | BI (DLG2-2) | BI (DLG5-1) | LogKD (DLG5-1) | BI (FRMPD2-3) | LogKD (FRMPD2-3) | BI (FRMPD4-1) | LogKD (FRMPD4-1) | BI (GOPC-1) | Kd (GOPC-1) [µM] | BI (GRIP1-7) | also measured
CC[C@H](C)[C@H](NC(=O)[C@H](CCC(N)=O)NC(=O)[C@@H](NC(=O)[C@H](Cc1c[nH]cn1)NC(=O)[C@H](CCC(N)=O)NC(=O)[C@H](CC(=O)O)NC(=O)[C@H](CCC(=O)O)NC(=O)[C@H](CC(=O)O)NC(=O)CCC(=O)NCCCOCCOCCOCCCNC(=O)CCCC[C@@H]1SC[C@@H]2NC(=O)N[C@@H]21)[C@@H](C)O)C(=O)N[C@H](C(=O)N[C@@H](CCCCNC(C)=O)C(=O)N[C@H](C(=O)O)C(C)C)[C@@H](C)O [PTEN_Ac] | 0.15 | 26.3 | 0.497 | 13.6 | 0.652 | 0.078 | 0.066 | -0.03 | 3.605 | 0.168 | 0.329 | -0.005 | 3.605 | -0.064 | 3.605 | -0.076 | 3.605 | 0.404 | 38.9 | -0.071 | Kd (DLG2-2): 54.4 µM; LogKD (GRIP1-7): 3.605; BI (GRIP2-7): -0.07; LogKD (GRIP2-7): 3.605; BI (HTRA3-1): 0.011; LogKD (HTRA3-1): 3.605; BI (INADL-4): -0.106; LogKD (INADL-4): 3.605; BI (LNX1-2): 0.164; BI (LNX2-4): 0.013; LogKD (LNX2-4): 3.605; BI (MAGI2-6): 0.469; Kd (MAGI2-6): 29.6 µM; BI (MAGI3-4): -0.101; LogKD (MAGI3-4): 3.605
CC[C@H](C)[C@H](NC(=O)[C@H](CCC(N)=O)NC(=O)[C@@H](NC(=O)[C@H](Cc1c[nH]cn1)NC(=O)[C@H](CCC(N)=O)NC(=O)[C@H](CC(=O)O)NC(=O)[C@H](CCC(=O)O)NC(=O)[C@H](CC(=O)O)NC(=O)CCC(=O)NCCCOCCOCCOCCCNC(=O)CCCC[C@@H]1SC[C@@H]2NC(=O)N[C@@H]21)[C@@H](C)O)C(=O)N[C@H](C(=O)N[C@@H](CCCCN)C(=O)N[C@H](C(=O)O)C(C)C)[C@@H](C)O [PTEN_11] | 0.103 | 38.5 | 0.455 | 32.8 | 0.494 | 0.099 | 0.476 | -0.01 | 3.519 | 0.109 | 0.168 | -0.042 | 3.519 | -0.046 | 3.519 | -0.004 | 3.519 | 0.26 | 93.8 | -0.03 | Kd (NHERF2 PDZ 2): 35.3 µM; BI (SNTB2 PDZ 1): 0.023; BI (DLG4-2): 0.124; LogKD (GRIP1-7): 3.519; BI (GRIP2-7): -0.067; LogKD (GRIP2-7): 3.519; BI (HTRA3-1): 0.05; LogKD (HTRA3-1): 3.519; BI (INADL-10): 0.022; LogKD (INADL-10): 3.519; BI (INADL-4): -0.049; LogKD (INADL-4): 3.519; BI (LNX1-2): 0.105; BI (LNX2-4): -0.124; LogKD (LNX2-4): 3.519; BI (MAGI2-6): 0.176; BI (MAGI3-4): -0.092; LogKD (MAGI3-4): 3.519
